# Experimental data taken from ChEMBL document CHEMBL1759853, “Imidazo[1,5-a]pyrazines: orally efficacious inhibitors of mTORC1 and mTORC2” (Bioorg Med Chem Lett, 2011).
# The source made the active and inactive calls. The calls are words filed in the database; no cut-off is given here.
# What was measured:
# [1] = cells; details: Homo sapiens, HeLa
# [2] = biological target: T1, 3-phosphoinositide-dependent protein kinase 1 (Homo sapiens, UniProt O15530); assay: Inhibition of PDK1
# T1 sequence (O15530 whole entry): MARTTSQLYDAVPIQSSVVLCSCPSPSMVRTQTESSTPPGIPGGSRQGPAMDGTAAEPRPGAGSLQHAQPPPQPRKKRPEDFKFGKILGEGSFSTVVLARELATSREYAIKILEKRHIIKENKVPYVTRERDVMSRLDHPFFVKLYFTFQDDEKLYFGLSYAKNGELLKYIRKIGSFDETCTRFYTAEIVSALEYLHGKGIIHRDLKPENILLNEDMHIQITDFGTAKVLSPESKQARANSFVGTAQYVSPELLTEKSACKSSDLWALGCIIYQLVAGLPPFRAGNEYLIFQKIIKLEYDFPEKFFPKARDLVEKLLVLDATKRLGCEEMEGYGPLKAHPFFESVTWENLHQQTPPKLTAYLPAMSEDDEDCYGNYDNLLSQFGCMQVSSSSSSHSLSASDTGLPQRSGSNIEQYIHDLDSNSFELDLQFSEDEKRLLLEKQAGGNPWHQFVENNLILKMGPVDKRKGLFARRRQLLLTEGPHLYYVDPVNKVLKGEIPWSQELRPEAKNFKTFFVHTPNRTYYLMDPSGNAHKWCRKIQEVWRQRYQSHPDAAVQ
# [3] = Plasma protein binding in mouse; type: ADME, cell-free; details: read-out: PPB (converted)
# [4] = system: Mus musculus; assay: […] mouse bearing human MDA-MB-231 cells assessed as inhibition of 4E-BP1 T37/46 phosphorylation at 100 mg/kg, po after 4 hrs; type: functional, organism-based; design: dose 100 mg/kg
# [5] = system: MDA-MB-231; assay: Antitumor activity against human MDA-MB-231 cells xenografted in CD-1 mouse at 100 mg/kg, po QD for 14 days; type: functional
# [6] = Permeability of the compound by PAMPA method; type: ADME; details: read-out: permeability
# [7] = AUC (0 to infinity) in mouse at 5 mg/kg, iv; type: ADME, organism-based; design: dose 5 mg/kg, route intravenous, time infinity; details: plasma
# [8] = Aqueous solubility of the compound at pH 7.4; type: physicochemical
# [9] = biological target: Phosphatidylinositol 4,5-bisphosphate 3-kinase catalytic subunit gamma isoform (Homo sapiens, UniProt P48736); assay: Inhibition of PI3Kgamma
# [10] = system: Mus musculus; assay: Toxicity in CD-1 mouse xenografted with human MDA-MB-231 cells assessed as reduction in body weight at 100 mg/kg, po QD for 14 days; type: organism-based; design: dose 100 mg/kg, route oral; details: in vivo, 336 h
# [11] = Inhibition of mTORC2 dependent P4E-BP1 T37/46 phosphorylation in human MDA-MB-231 cells; type: cell-based
# [12] = biological target: Proto-oncogene tyrosine-protein kinase Src (Homo sapiens, UniProt P12931); assay: Inhibition of Src
# [13] = biological target: Vascular endothelial growth factor receptor 2 (Homo sapiens, UniProt P35968); assay: Inhibition of KDR
# [14] = Cmax in mouse at 20 mg/kg, po; type: ADME, organism-based; design: dose 20 mg/kg, route oral; details: in vivo
# [15] = Metabolic stability in mouse liver microsome assessed as extraction ratio; type: ADME; details: liver microsomes
# [16] = system: Mus musculus; assay: […] mouse bearing human MDA-MB-231 cells assessed as inhibition of 4E-BP1 T37/46 phosphorylation at 100 mg/kg, po after 8 hrs; type: functional, organism-based; design: dose 100 mg/kg
# [17] = system: MDA-MB-231; assay: Antiproliferative activity against human MDA-MB-231 cells; type: functional, cell-based
# [18] = biological target: Tyrosine-protein kinase ABL1 (Homo sapiens, UniProt P00519); assay: Inhibition of Abl
# [19] = Inhibition of mTORC2 dependent pAkT S473 phosphorylation in human BT-20 cells; type: cell-based
# [20] = Bioavailability in mouse at 20 mg/kg, po; type: ADME, organism-based; details: in vivo
# [21] = biological target: RAF proto-oncogene serine/threonine-protein kinase (Homo sapiens, UniProt P04049); assay: Inhibition of cRaf
# [22] = in vitro; details: human, liver microsomes
# Description: Metabolic stability in human liver microsome assessed as extraction ratio
# [23] = biological target: T2, Insulin-like growth factor 1 receptor (Homo sapiens, UniProt P08069); assay: Inhibition of IGF-1R
# [24] = Half life in mouse at 5 mg/kg, iv; type: ADME, organism-based; design: dose 5 mg/kg, route intravenous; details: in vivo
# [25] = biological target: Dual specificity mitogen-activated protein kinase kinase 1 (Homo sapiens, UniProt Q02750); assay: Inhibition of MEK1
# [26] = AUC (0 to infinity) in mouse at 20 mg/kg, po; type: ADME, organism-based; design: time infinity, dose 20 mg/kg, route oral; details: plasma
# [27] = Volume of distribution at steady-state in mouse at 5 mg/kg, iv; type: ADME, organism-based; design: dose 5 mg/kg, route intravenous; details: in vivo, read-out: Vdss
# [28] = biological target: Insulin receptor (Homo sapiens, UniProt P06213); assay: Inhibition of IR
# [29] = Clearance in mouse at 5 mg/kg, iv; type: ADME, organism-based; design: dose 5 mg/kg, route intravenous; details: in vivo
# [30] = biological target: Epidermal growth factor receptor (Homo sapiens, UniProt P00533)
# [31] = Clearance in mouse at 1 mg/kg, iv; type: ADME, organism-based; design: dose 1 mg/kg, route intravenous; details: in vivo
# [32] = Half life in mouse at 1 mg/kg, iv; type: ADME, organism-based; design: dose 1 mg/kg, route intravenous; details: in vivo
# [33] = Volume of distribution at steady-state in mouse at 1 mg/kg, iv; type: ADME, organism-based; design: dose 1 mg/kg, route intravenous; details: in vivo, read-out: Vdss
# [34] = AUC (0 to infinity) in mouse at 1 mg/kg, iv; type: ADME, organism-based; design: time infinity, dose 1 mg/kg, route intravenous; details: plasma
# [35] = biological target: T2, Insulin-like growth factor 1 receptor; assay: Inhibition of IGF-1R by ELISA
# [36] = system: BT-20; assay: Inhibition of mTORC2 dependent pAkT S473 phosphorylation in human BT-20 cells at 20 uM; type: cell-based
# [37] = system: MDA-MB-231; assay: Inhibition of mTORC2 dependent P4E-BP1 T37/46 phosphorylation in human MDA-MB-231 cells at 20 uM; type: cell-based
# T2 sequence (P08069 31-736 limits assumed): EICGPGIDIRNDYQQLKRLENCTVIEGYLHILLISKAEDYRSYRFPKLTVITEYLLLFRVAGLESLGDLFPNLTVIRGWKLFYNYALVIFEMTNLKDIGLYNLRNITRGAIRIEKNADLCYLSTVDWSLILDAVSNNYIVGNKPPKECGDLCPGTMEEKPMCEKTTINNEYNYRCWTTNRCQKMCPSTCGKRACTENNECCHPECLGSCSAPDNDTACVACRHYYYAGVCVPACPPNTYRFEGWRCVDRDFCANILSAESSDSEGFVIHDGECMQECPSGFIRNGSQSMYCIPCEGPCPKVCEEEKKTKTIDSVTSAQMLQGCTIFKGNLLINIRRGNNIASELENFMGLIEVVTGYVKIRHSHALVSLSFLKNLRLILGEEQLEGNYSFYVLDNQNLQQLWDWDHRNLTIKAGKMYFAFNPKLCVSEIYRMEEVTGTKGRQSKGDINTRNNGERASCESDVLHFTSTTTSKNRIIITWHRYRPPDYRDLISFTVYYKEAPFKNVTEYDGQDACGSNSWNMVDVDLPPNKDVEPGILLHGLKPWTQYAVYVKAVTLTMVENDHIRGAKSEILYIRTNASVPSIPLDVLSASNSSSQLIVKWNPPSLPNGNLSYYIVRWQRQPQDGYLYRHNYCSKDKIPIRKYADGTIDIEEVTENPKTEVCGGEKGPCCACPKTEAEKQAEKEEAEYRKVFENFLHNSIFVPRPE
# T2 sequence (P08069 741-1367 limits assumed): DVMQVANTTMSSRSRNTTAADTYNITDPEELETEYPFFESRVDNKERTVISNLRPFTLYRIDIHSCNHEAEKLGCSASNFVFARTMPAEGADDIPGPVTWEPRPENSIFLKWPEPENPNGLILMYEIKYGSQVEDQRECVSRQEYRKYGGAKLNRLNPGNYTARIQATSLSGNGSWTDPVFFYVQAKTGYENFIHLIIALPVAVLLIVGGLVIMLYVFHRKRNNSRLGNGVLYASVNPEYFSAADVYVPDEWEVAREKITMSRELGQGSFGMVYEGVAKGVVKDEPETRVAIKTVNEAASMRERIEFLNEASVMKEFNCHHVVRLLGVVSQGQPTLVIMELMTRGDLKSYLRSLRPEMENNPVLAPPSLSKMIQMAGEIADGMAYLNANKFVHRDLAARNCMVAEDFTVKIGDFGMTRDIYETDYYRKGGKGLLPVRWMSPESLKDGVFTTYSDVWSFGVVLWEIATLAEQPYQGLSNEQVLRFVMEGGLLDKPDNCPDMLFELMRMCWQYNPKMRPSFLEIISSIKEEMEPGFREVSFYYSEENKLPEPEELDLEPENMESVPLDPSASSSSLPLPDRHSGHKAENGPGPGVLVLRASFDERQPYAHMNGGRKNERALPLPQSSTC
# Tyrosine-protein kinase ABL1, sequence (P00519 whole entry): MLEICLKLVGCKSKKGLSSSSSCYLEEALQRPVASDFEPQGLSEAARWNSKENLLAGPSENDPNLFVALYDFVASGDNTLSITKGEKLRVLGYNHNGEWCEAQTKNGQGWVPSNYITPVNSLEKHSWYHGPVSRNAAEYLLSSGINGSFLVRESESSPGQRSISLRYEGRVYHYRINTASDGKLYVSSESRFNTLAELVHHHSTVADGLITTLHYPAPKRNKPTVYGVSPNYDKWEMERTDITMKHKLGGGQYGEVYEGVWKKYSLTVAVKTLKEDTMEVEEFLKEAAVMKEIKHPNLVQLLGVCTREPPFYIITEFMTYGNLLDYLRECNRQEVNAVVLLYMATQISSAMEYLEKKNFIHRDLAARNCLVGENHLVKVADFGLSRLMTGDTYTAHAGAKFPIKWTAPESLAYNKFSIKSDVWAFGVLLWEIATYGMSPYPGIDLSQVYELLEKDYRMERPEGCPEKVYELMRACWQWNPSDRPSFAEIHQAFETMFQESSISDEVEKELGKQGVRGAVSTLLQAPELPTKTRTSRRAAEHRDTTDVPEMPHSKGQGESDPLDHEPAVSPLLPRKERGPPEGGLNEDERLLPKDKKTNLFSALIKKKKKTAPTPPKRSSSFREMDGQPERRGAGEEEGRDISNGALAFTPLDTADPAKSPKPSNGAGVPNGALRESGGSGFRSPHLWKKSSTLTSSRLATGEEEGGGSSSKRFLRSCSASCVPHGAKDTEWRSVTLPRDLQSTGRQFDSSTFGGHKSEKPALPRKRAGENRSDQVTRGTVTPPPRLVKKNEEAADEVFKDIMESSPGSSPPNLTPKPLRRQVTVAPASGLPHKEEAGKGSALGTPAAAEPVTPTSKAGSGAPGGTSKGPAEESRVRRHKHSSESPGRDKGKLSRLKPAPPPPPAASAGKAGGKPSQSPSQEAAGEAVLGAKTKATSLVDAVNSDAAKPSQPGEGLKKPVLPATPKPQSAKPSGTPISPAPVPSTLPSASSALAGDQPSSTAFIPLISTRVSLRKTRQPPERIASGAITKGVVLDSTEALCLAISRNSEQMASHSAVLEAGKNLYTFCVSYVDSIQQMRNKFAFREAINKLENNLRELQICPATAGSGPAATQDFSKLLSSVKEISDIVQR
# Dual specificity mitogen-activated protein kinase kinase 1, sequence (Q02750 whole entry): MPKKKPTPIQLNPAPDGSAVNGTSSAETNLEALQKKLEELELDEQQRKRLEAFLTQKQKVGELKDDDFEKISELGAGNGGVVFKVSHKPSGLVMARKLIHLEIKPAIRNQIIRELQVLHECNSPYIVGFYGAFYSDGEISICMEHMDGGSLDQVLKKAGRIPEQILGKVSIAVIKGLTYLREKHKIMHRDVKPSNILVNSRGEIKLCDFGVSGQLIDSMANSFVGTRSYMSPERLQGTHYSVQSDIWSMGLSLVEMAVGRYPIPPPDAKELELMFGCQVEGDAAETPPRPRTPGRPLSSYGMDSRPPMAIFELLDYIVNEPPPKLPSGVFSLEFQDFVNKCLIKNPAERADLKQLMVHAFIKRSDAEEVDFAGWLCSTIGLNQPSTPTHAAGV
# Proto-oncogene tyrosine-protein kinase Src, sequence (P12931 2-536 limits assumed): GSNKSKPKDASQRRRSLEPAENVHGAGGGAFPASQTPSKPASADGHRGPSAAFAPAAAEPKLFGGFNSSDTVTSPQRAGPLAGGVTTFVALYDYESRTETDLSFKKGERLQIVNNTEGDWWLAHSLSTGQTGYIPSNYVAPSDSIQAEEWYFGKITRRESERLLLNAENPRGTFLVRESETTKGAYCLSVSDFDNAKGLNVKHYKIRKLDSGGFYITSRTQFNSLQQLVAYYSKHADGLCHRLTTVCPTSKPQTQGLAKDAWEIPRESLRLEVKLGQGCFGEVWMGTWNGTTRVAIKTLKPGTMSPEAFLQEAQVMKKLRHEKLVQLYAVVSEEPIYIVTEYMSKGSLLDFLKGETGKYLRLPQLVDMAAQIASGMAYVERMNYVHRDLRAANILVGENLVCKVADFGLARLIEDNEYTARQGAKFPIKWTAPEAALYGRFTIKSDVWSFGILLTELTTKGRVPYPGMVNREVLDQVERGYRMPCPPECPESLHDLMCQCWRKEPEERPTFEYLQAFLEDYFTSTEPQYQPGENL
# Insulin receptor, sequence (P06213 28-758 limits assumed): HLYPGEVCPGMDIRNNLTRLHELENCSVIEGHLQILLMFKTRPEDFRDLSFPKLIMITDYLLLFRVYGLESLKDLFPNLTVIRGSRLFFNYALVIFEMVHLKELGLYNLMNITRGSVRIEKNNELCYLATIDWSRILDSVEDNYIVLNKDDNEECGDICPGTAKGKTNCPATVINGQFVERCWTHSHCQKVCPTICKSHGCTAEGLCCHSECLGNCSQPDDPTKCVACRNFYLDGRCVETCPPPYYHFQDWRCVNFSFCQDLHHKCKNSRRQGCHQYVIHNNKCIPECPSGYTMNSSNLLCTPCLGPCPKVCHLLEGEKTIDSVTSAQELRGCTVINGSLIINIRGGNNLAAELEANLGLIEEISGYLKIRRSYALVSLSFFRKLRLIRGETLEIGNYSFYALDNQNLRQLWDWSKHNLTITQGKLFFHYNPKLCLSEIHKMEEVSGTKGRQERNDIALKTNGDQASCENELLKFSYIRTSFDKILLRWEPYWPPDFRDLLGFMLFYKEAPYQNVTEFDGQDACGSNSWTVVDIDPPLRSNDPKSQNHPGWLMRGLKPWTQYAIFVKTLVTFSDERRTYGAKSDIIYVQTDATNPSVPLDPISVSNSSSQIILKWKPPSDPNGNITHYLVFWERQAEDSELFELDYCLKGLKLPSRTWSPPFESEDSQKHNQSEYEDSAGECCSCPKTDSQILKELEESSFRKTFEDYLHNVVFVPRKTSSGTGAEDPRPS
# Insulin receptor, sequence (P06213 763-1382 limits assumed): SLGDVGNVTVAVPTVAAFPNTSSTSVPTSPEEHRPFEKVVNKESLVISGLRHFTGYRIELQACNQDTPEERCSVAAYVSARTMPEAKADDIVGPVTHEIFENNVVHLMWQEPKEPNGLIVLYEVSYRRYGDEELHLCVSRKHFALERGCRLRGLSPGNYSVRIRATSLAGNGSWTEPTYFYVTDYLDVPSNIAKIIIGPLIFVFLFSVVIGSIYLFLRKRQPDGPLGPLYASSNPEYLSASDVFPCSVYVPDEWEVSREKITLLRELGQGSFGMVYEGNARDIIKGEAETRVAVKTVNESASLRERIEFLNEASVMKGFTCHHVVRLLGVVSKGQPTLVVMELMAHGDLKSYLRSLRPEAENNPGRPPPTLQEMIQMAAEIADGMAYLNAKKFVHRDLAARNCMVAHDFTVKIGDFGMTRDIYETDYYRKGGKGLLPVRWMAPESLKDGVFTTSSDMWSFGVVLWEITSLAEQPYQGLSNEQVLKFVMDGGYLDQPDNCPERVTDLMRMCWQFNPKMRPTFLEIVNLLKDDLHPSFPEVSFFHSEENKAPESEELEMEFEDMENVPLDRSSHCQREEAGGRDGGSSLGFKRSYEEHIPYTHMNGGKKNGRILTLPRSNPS
smiles,measurement,setting,value
Nc1nccn2c(C3CCC3)nc(-c3ccc4[nH]ccc4c3)c12,IC50,[1],2.48 µM
Nc1nccn2c(C3CCC3)nc(-c3ccc4occc4c3)c12,IC50,[1],> 10 µM
Nc1nccn2c(C3CCC3)nc(-c3ccc4cc[nH]c4c3)c12,IC50,[1],3.12 µM
CS(=O)(=O)NC[C@H]1CC[C@H](c2nc(-c3cc4ccccc4[nH]3)c3c(N)nccn32)CC1,IC50,[1],0.41 µM
Nc1nccn2c(C3CCC3)nc(-c3ccc4ccccc4c3)c12,IC50,[1],1.36 µM
CN(C)C(=O)N1CCC(c2nc(-c3cc4ccccc4[nH]3)c3c(N)nccn23)CC1,IC50,[2],> 30 µM
same,fraction unbound,[3],0.119
same,Activity,[4],Active
same,Activity,[5],94%
same,Papp,[6],> 25 ×10⁻⁶ cm/s
same,AUC(0-inf),[7],12100 ng·h/mL
same,solubility,[8],> 100 µM
same,IC50,[9],> 30 µM
same,Activity,[10],Toxic
same,IC50,[1],0.12 µM
same,IC50,[11],7.8 µM
same,IC50,[12],0.77 µM
same,IC50,[13],> 10 µM
same,Cmax,[14],35.9 µM
same,hepatic extraction ratio,[15],0.67
same,Activity,[16],Active
same,IC50,[17],9.3 µM
same,IC50,[18],> 10 µM
same,IC50,[19],1.38 µM
same,bioavailability,[20],102%
same,IC50,[21],1.7 µM
same,hepatic extraction ratio,[22],0.68
same,IC50,[23],> 30 µM
same,half-life,[24],0.9 h
same,IC50,[25],> 10 µM
same,AUC(0-inf),[26],49400 ng·h/mL
same,Vd,[27],0.4 L/kg
same,IC50,[28],> 30 µM
same,clearance,[29],7 mL/min/kg
same,IC50,[30],> 10 µM
Nc1nccn2c1c(-c1cc3ccccc3[nH]1)nc2[C@H]1CC[C@H](CNC(=O)C2CCC2)CC1,IC50,[1],0.17 µM
same,hepatic extraction ratio,[15],0.79
same,hepatic extraction ratio,[22],0.74
Nc1nccn2c1c(-c1cc3ccccc3[nH]1)nc2[C@H]1CC[C@H](CO)CC1,IC50,[1],0.22 µM
same,hepatic extraction ratio,[15],0.67
same,hepatic extraction ratio,[22],0.74
Nc1nccn2c(C3CCC3)nc(-c3cc4ccccc4s3)c12,IC50,[1],0.13 µM
Nc1nccn2c1c(-c1cc3ccccc3[nH]1)nc2[C@H]1CC[C@H](CNC(=O)c2ccoc2)CC1,IC50,[1],0.09 µM
same,hepatic extraction ratio,[15],0.76
same,hepatic extraction ratio,[22],0.78
Nc1nccn2c(C3CCC3)nc(-c3ccc4ncccc4c3)c12,IC50,[1],7.15 µM
CC(=O)NC[C@H]1CC[C@H](c2nc(-c3cc4ccccc4[nH]3)c3c(N)nccn32)CC1,clearance,[31],2 mL/min/kg
same,IC50,[2],11.2 µM
same,fraction unbound,[3],0.097
same,Activity,[4],Active
same,Papp,[6],> 25 ×10⁻⁶ cm/s
same,half-life,[32],1.6 h
same,Vd,[33],0.2 L/kg
same,solubility,[8],> 100 µM
same,IC50,[9],> 30 µM
same,IC50,[1],0.21 µM
same,IC50,[11],7.4 µM
same,IC50,[12],5.3 µM
same,Cmax,[14],30.6 µM
same,Activity,[16],Active
same,IC50,[17],7.4 µM
same,IC50,[18],1.96 µM
same,IC50,[19],1.26 µM
same,AUC(0-inf),[34],6880 ng·h/mL
same,bioavailability,[20],54%
same,IC50,[21],0.18 µM
same,IC50,[23],2.72 µM
same,IC50,[25],0.96 µM
same,AUC(0-inf),[26],73800 ng·h/mL
same,IC50,[28],22.6 µM
CC(=O)N1CCN([C@H]2C[C@@H](c3nc(-c4cc5ccccc5[nH]4)c4c(N)nccn43)C2)CC1,IC50,[1],0.35 µM
same,hepatic extraction ratio,[15],0.59
same,hepatic extraction ratio,[22],0.58
Nc1nccn2c1c(-c1cc3ccccc3[nH]1)nc2[C@H]1C[C@@H](CO)C1,IC50,[1],0.32 µM
same,hepatic extraction ratio,[15],0.79
same,hepatic extraction ratio,[22],0.7
Nc1nccn2c(C3CCC3)nc(-c3cc4cccnc4[nH]3)c12,IC50,[1],0.4 µM
Nc1nccn2c(C3CCC3)nc(-c3cc4ccccc4[nH]3)c12,IC50,[1],0.46 µM
same,hepatic extraction ratio,[15],0.94
same,hepatic extraction ratio,[22],0.92
Nc1nccn2c1c(-c1cc3ccccc3[nH]1)nc2[C@H]1CC[C@H](CNC=O)CC1,IC50,[1],0.15 µM
same,hepatic extraction ratio,[15],0.51
same,hepatic extraction ratio,[22],0.64
Nc1nccn2c(C3CCC3)nc(-c3ccc4nccnc4c3)c12,IC50,[1],2.6 µM
Nc1nccn2c(C3CCC3)nc(-c3ccc4cccnc4c3)c12,IC50,[35],> 10 µM
same,IC50,[1],0.9 µM
Nc1nccn2c(C3CCC3)nc(-c3cnc4ccccc4c3)c12,IC50,[1],2.35 µM
CN1CCN([C@H]2C[C@@H](c3nc(-c4cc5ccccc5[nH]4)c4c(N)nccn43)C2)CC1,IC50,[1],4 µM
same,hepatic extraction ratio,[15],0.2
same,hepatic extraction ratio,[22],0.44
Nc1nccn2c(C3CCC3)nc(-c3ccc4sccc4c3)c12,IC50,[1],1.3 µM
Nc1nccn2c(C3CCC3)nc(-c3c[nH]c4ccccc34)c12,IC50,[1],> 10 µM
Nc1nccn2c(C3CCC3)nc(-c3ccc4ccc(-c5ccccc5)nc4c3)c12,IC50,[1],> 9 µM
CC(=O)N1CCC(c2nc(-c3cc4ccccc4[nH]3)c3c(N)nccn23)CC1,IC50,[1],0.69 µM
same,hepatic extraction ratio,[15],0.43
same,hepatic extraction ratio,[22],0.44
CO[C@H]1C[C@@H]2CC[C@@H](C)[C@@](O)(O2)C(=O)C(=O)N2CCCC[C@H]2C(=O)O[C@H]([C@H](C)C[C@@H]2CC[C@@H](O)[C@H](OC)C2)CC(=O)[C@H](C)/C=C(\C)[C@@H](O)[C@@H](OC)C(=O)[C@H](C)C[C@H](C)/C=C/C=C/C=C/1C,inhibition,[36],inactive
same,inhibition,[37],40%
Nc1nccn2c(C3CCC3)nc(-c3cc4ccccc4o3)c12,IC50,[1],0.26 µM
Nc1nccn2c1c(-c1cc3ccccc3[nH]1)nc2[C@H]1C[C@@H](O)C1,IC50,[1],0.37 µM
same,hepatic extraction ratio,[15],0.6
same,hepatic extraction ratio,[22],0.74
Nc1nccn2c(C3CCC3)nc(-c3cccc(O)c3)c12,IC50,[1],1.97 µM
Nc1nccn2c(C3CCNCC3)nc(-c3cc4ccccc4[nH]3)c12,IC50,[1],> 10 µM
same,hepatic extraction ratio,[15],0.64
same,hepatic extraction ratio,[22],0.18
Nc1nccn2c(C3CCC3)nc(-c3cccc4ccccc34)c12,IC50,[1],> 10 µM
NC[C@H]1CC[C@H](c2nc(-c3cc4ccccc4[nH]3)c3c(N)nccn32)CC1,IC50,[1],1 µM
same,hepatic extraction ratio,[15],0.28
same,hepatic extraction ratio,[22],0.34
CN1CCN(C(=O)N2CCC(c3nc(-c4cc5ccccc5[nH]4)c4c(N)nccn34)CC2)CC1,IC50,[1],1.37 µM
